Measurements published in ChEMBL document CHEMBL4184120, “Target ROS to induce apoptosis and cell cycle arrest by 5,7-dimethoxy-1,4-naphthoquinone derivative” (Bioorg Med Chem Lett, 2018).
Values belong to the compound of their own block, whether it stands above or below them. Activity calls are given as the source filed them. No cut-off for these calls is given here.

Columns and labels:
HeLa = assay: Antiproliferative activity against human HeLa cells after 48 hrs by MTT assay; type: functional, cell-based
HepG2 = assay: Antiproliferative activity against human HepG2 cells after 48 hrs by MTT assay; type: functional, cell-based; details: HepG2, 48 h
A549 = assay: Antiproliferative activity against human A549 cells after 48 hrs by MTT assay; type: functional, cell-based; details: A549, 48 h
NCI-H460 = assay: Antiproliferative activity against human NCI-H460 cells after 48 by hrs MTT assay; type: functional, cell-based
HL-60 [1] = assay: Antiproliferative activity against human HL60 cells after 48 hrs by MTT assay; type: functional, cell-based; details: HL-60, 48 h
[2] = Redox potential of the compound in pH 7.4 PBS buffer assessed as reduction potential at 0.4 mM by cyclic voltametry; type: physicochemical; details: pH 7.4, 400 µM
[3] = Redox potential of the compound in pH 7.4 PBS buffer assessed as oxidation potential at 0.4 mM by cyclic voltametry; type: physicochemical; details: pH 7.4, 400 µM
[4] = Redox potential of the compound in pH 7.4 PBS buffer assessed as half wave potential at 0.4 mM by cyclic voltametry; type: physicochemical; details: pH 7.4, 400 µM
K562 = assay: Antiproliferative activity against human K562 cells after 48 hrs by MTT assay; type: functional, cell-based; details: K562, 48 h
WI-38 = assay: Antiproliferative activity against human WI38 cells after 48 hrs by MTT assay; type: cell-based; details: WI-38, 48 h
[5] = Selectivity index, ratio of IC50 for human WI38 cells to IC50 for human HL60 cells; type: toxicity; details: WI38 cells and HL60 cells, read-out: Ratio IC50
HL-60 [6] = assay: Induction of ROS generation in human HL60 cells after 6 hrs by DCFH-DA staining-based fluorescence microscopic analysis; type: functional, cell-based
HL-60 [7] = assay: Induction of ROS generation in human HL60 cells at 4 uM incubated for 6 hrs starting from 1 hr post antioxidant NAC addition by DCFH-DA staining-based fluorescence microscopic analysis; type: functional, cell-based
HL-60 [8] = assay: Induction of apoptosis in human HL60 cells assessed as condensed nuclei formation after 24 hrs by Hoechst-33342 staining-based fluorescence microscopic analysis; type: functional, cell-based
HL-60 [9] = assay: Induction of apoptosis in human HL60 cells assessed as nuclear fragmentation after 24 hrs by Hoechst-33342 staining-based fluorescence microscopic analysis; type: functional, cell-based
HL-60 [10] = assay: Induction of apoptosis in human HL60 cells assessed as early apoptotic cells at 1 uM after 48 hrs by Annexin V-FITC/propidium iodide staining based flow cytometry (reference value: 3.13%); type: functional
HL-60 [11] = assay: Induction of apoptosis in human HL60 cells assessed as late apoptotic cells at 1 uM after 48 hrs by Annexin V-FITC/propidium iodide staining based flow cytometry (reference value: 1.23%); type: functional
HL-60 [12] = assay: Induction of apoptosis in human HL60 cells assessed as early apoptotic cells at 2 uM after 48 hrs by Annexin V-FITC/propidium iodide staining based flow cytometry (reference value: 3.13%); type: functional
HL-60 [13] = assay: Induction of apoptosis in human HL60 cells assessed as late apoptotic cells at 2 uM after 48 hrs by Annexin V-FITC/propidium iodide staining based flow cytometry (reference value: 1.23%); type: functional
HL-60 [14] = assay: Induction of apoptosis in human HL60 cells assessed as early apoptotic cells at 4 uM after 48 hrs by Annexin V-FITC/propidium iodide staining based flow cytometry (reference value: 3.13%); type: functional
HL-60 [15] = assay: Induction of apoptosis in human HL60 cells assessed as late apoptotic cells at 4 uM after 48 hrs by Annexin V-FITC/propidium iodide staining based flow cytometry (reference value: 1.23%); type: functional
HL-60 [16] = assay: Induction of apoptosis in human HL60 cells assessed as late apoptotic cells at 4 uM incubated for 48 hrs starting from 1 hr post antioxidant NAC addition by Annexin V-FITC/propidium iodide staining based flow cytometry (reference value: 1.23%); type: functional
HL-60 [17] = assay: Induction of apoptosis in human HL60 cells assessed as early apoptotic cells at 4 uM incubated for 48 hrs starting from 1 hr post antioxidant NAC addition by Annexin V-FITC/propidium iodide staining based flow cytometry (reference value: 3.13%); type: functional
HL-60 [18] = assay: Induction of apoptosis in human HL60 cells assessed as early apoptotic cells after 48 hrs by Annexin V-FITC/propidium iodide staining based flow cytometry; type: functional, cell-based
HL-60 [19] = assay: Induction of apoptosis in human HL60 cells assessed as late apoptotic cells after 48 hrs by Annexin V-FITC/propidium iodide staining based flow cytometry; type: functional, cell-based
HL-60 [20] = assay: Induction of apoptosis in human HL60 cells assessed as necrotic cells after 48 hrs by Annexin V-FITC/propidium iodide staining based flow cytometry; type: functional, cell-based
HL-60 [21] = assay: Cell cycle arrest in human HL60 cells assessed as accumulation at G0/G1 phase at 1 uM after 48 hrs by propidium iodide staining based assay (reference value: 50.88%); type: functional
HL-60 [22] = assay: Cell cycle arrest in human HL60 cells assessed as accumulation at S phase at 1 uM after 48 hrs by propidium iodide staining based assay (reference value: 46.44%); type: functional
HL-60 [23] = assay: Cell cycle arrest in human HL60 cells assessed as accumulation at G2/M phase at 1 uM after 48 hrs by propidium iodide staining based assay (reference value: 2.68%); type: functional
HL-60 [24] = assay: Cell cycle arrest in human HL60 cells assessed as accumulation at G0/G1 phase at 2 uM after 48 hrs by propidium iodide staining based assay (reference value: 50.88%); type: functional
HL-60 [25] = assay: Cell cycle arrest in human HL60 cells assessed as accumulation at S phase at 2 uM after 48 hrs by propidium iodide staining based assay (reference value: 46.44%); type: functional
HL-60 [26] = assay: Cell cycle arrest in human HL60 cells assessed as accumulation at G2/M phase at 2 uM after 48 hrs by propidium iodide staining based assay (reference value: 2.68%); type: functional
HL-60 [27] = assay: Cell cycle arrest in human HL60 cells assessed as accumulation at G0/G1 phase at 4 uM after 48 hrs by propidium iodide staining based assay (reference value: 50.88%); type: functional
HL-60 [28] = assay: Cell cycle arrest in human HL60 cells assessed as accumulation at S phase at 4 uM after 48 hrs by propidium iodide staining based assay (reference value: 46.44%); type: functional
HL-60 [29] = assay: Cell cycle arrest in human HL60 cells assessed as accumulation at G2/M phase at 4 uM after 48 hrs by propidium iodide staining based assay (reference value: 2.68%); type: functional
HL-60 [30] = assay: Cell cycle arrest in human HL60 cells assessed as accumulation at G0/G1 phase at 4 uM incubated for 48 hrs starting from 1 hr post antioxidant NAC addition by propidium iodide staining based assay (reference value: 50.88%); type: functional
HL-60 [31] = assay: Cell cycle arrest in human HL60 cells assessed as accumulation at S phase at 4 uM incubated for 48 hrs starting from 1 hr post antioxidant NAC addition by propidium iodide staining based assay (reference value: 46.44%); type: functional
HL-60 [32] = assay: Cell cycle arrest in human HL60 cells assessed as accumulation at G2/M phase at 4 uM incubated for 48 hrs starting from 1 hr post antioxidant NAC addition by propidium iodide staining based assay (reference value: 2.68%); type: functional
HL-60 [33] = assay: Induction of apoptosis in human HL60 cells assessed as condensed nuclei formation at 4 uM preincubated for 1 hr with antioxidant NAC measured after 24 hrs by Hoechst-33342 staining-based fluorescence microscopic analysis; type: functional, cell-based
HL-60 [34] = assay: Induction of apoptosis in human HL60 cells assessed as nuclear fragmentation at 4 uM preincubated for 1 hr with antioxidant NAC measured after 24 hrs by Hoechst-33342 staining-based fluorescence microscopic analysis; type: functional, cell-based
[35] = Selectivity ratio of IC50 for human K562 cells to IC50 for human HL60 cells; type: functional

Compound: CCCCC1=C(O)C(=O)c2cc(OC)cc(OC)c2C1=O
IC50 (HeLa): > 100 µM
IC50 (HepG2): 95.9 µM
IC50 (A549): 65.4 µM
IC50 (NCI-H460): > 100 µM
IC50 (HL-60 [1]): > 100 µM
Activity [2]: -0.328 V
Activity [3]: -0.227 V
Activity [4]: -0.278 V

Compound: CCCCCCC1=C(O)C(=O)c2cc(OC)cc(OC)c2C1=O
IC50 (HeLa): > 100 µM
IC50 (HepG2): 90.4 µM
IC50 (A549): > 100 µM
IC50 (NCI-H460): > 100 µM
IC50 (HL-60 [1]): > 100 µM

Compound: CCCC1=C(O)C(=O)c2cc(OC)cc(OC)c2C1=O
IC50 (HeLa): > 100 µM
IC50 (HepG2): > 100 µM
IC50 (A549): 78.7 µM
IC50 (NCI-H460): > 100 µM
IC50 (HL-60 [1]): > 100 µM

Continued, in another order:

IC50 (HeLa): > 100 µM
IC50 (HepG2): > 100 µM
IC50 (A549): > 100 µM
IC50 (NCI-H460): > 100 µM
IC50 (HL-60 [1]): 95.5 µM
Compound: CCCCCCCCCCC1=C(O)C(=O)c2cc(OC)cc(OC)c2C1=O

IC50 (HeLa): 52.4 µM
IC50 (HepG2): 55.9 µM
IC50 (A549): > 100 µM
IC50 (NCI-H460): 75.2 µM
IC50 (HL-60 [1]): 61.4 µM
Activity [2]: -0.311 V
Activity [3]: -0.187 V
Activity [4]: -0.249 V
Compound: CCCCC1=C(OC)C(=O)c2cc(OC)cc(OC)c2C1=O

IC50 (HeLa): 22.3 µM
IC50 (HepG2): 23.1 µM
IC50 (A549): 24.1 µM
IC50 (NCI-H460): 38.7 µM
IC50 (HL-60 [1]): 3.8 µM
IC50 (K562): 32.3 µM
Activity [2]: -0.235 V
Activity [3]: -0.169 V
Activity [4]: -0.202 V
Compound: CCCCC1=C(Cl)C(=O)c2cc(OC)cc(OC)c2C1=O
IC50 (WI-38): 40.7 µM
selectivity ratio [5]: 10.7
Activity (HL-60 [6]): Dose-dependent effect
Activity (HL-60 [7]): inactive
Activity (HL-60 [8]): Dose-dependent effect
Activity (HL-60 [9]): Dose-dependent effect
Activity (HL-60 [10]): 4.48%
Activity (HL-60 [11]): 14.9%
Activity (HL-60 [12]): 7.35%
Activity (HL-60 [13]): 20.9%
Activity (HL-60 [14]): 26.6%
Activity (HL-60 [15]): 40.4%
Activity (HL-60 [16]): 6.78%
Activity (HL-60 [17]): 2.08%
Activity (HL-60 [18]): Dose-dependent effect
Activity (HL-60 [19]): Dose-dependent effect
Activity (HL-60 [20]): Dose-dependent effect
Activity (HL-60 [21]): 35.72%
Activity (HL-60 [22]): 51.13%
Activity (HL-60 [23]): 13.15%
Activity (HL-60 [24]): 34.89%
Activity (HL-60 [25]): 47.42%
Activity (HL-60 [26]): 17.69%
Activity (HL-60 [27]): 18.18%
Activity (HL-60 [28]): 49.89%
Activity (HL-60 [29]): 31.93%
Activity (HL-60 [30]): 48.52%
Activity (HL-60 [31]): 43.67%
Activity (HL-60 [32]): 7.8%
Activity (HL-60 [33]): Active
Activity (HL-60 [34]): Active
Ratio IC50 [35]: 8
